For 1 molecule, IC50 results are on record in paper PMC3386958, “High-throughput Screening and Sensitized Bacteria Identify an M. tuberculosis Dihydrofolate Reductase Inhibitor with Whole Cell Activity” (PLoS ONE, 2012).

The target in the experiment is T1, Mtb dihydrofolate reductase (DHFR) (Mycobacterium tuberculosis, UniProt P9WNX1).
T1 construct: gene folA; recombinant, 6-histidine tag at the amino terminus
T1 sequence (P9WNX1 1-161): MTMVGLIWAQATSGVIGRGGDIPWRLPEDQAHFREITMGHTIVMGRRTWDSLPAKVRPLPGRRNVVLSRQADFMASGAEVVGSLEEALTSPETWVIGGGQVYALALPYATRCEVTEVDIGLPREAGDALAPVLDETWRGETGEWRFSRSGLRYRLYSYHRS
It is filed as biochemical.

For the molecule `Nc1nc(N)c2cc(C(F)(F)F)ccc2n1` [NC00094221], the IC50 (usually the midpoint of a concentration-inhibition curve) turned out to be 22.4 nM.
